For the assay, the target named is T1, DP receptor (Homo sapiens, UniProt Q13258).
T1 construct: using the human cell line LS174T, which expresses the endogenous DP receptor; endogenous in cells; host or cells: LS174T human cell line
T1 sequence (Q13258 1-359): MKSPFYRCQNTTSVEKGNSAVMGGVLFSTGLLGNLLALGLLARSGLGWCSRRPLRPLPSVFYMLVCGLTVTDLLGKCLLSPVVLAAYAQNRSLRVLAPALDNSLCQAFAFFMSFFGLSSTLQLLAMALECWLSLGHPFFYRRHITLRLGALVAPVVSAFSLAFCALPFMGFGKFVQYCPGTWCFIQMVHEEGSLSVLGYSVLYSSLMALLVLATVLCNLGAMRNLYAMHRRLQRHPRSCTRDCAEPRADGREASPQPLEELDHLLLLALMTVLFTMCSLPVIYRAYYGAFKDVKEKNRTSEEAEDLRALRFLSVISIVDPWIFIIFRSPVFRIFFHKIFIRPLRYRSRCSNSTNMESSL
In words: SPA cAMP assay in human LS174 T cells (human DP functional assay). Conditions: inhibition of PGD2 (15 nM)-stimulated cAMP, LS174T cells expressing endogenous DP receptor. Format: cell-based. Here is the method:
The inhibitory effects of the compounds according to the invention are assessed in a human DP functional assay. A cAMP assay is employed using the human cell line LS174T, which expresses the endogenous DP receptor. The protocol is similar to that described previously (Wright D H, Ford-Hutchinson A W, Chadee K, Metters K M, The human prostanoid DP receptor stimulates mucin secretion in LS174T cells, Br J Pharmacol. 131(8):1537-45 (2000)).
Protocol for SPA cAMP Assay in Human LS174 T Cells
• PGD2 (Cayman Chemical Cat#12010) • IBMX (Sigma Cat# 5879) • cAMP SPA direct screening assay system (Amersham code RPA 559) • 96-well cell plates (Wallac Cat# 1450-516) • Wallac 1450 Microplate Trilux scintillation counter (PerkinElmer) • Plate sealers • Eppendorf tubes • Dulbecco's Phosphate-Buffered Saline (PBS) (Invitrogen Cat#14040-133) • Distilled water • Vortex • Magnetic stirrer and stirrer bars Reagent Preparation:
All reagents should be allowed to equilibrate to room temperature before reconstitution.
Transfer the contents of the bottle to a 500 mL graduated cylinder by repeated washing with distilled water. Adjust the final volume to 500 mL with distilled water and mix thoroughly.
Dissolve each of the lysis reagents 1 and 2 in 200 mL assay buffer respectively. Leave at room temperature for 20 minutes to dissolve.
Add 30 mL of lysis buffer 2 to the bottle. Gently shake the bottle for 5 minutes.
Add 15 mL of lysis buffer 2 to each vial, and gently mix until the contents are completely dissolved.
Add 14 mL lysis buffer 2 to each vial and gently mix until the contents are completely dissolved.
Preparation of Immunoreagent
• 1) Add equal volumes of tracer, antiserum and SPA anti-rabbit reagent to a bottle, ensuring that a sufficient volume of this mixture is prepared for the desired number of wells (150 μL/well). • 2) Mix thoroughly. • 3) This immunoreagent solution should be freshly prepared before each assay and not re-used. Standard • 1) Add 1 mL lysis buffer 1 and gently mix until contents are completely dissolved. • 2) The final solution contains cAMP at a concentration of 512 pmol/mL. • 3) Label 7 polypropylene or polystyrene tubes, 0.2 pmol, 0.4 pmol, 0.8 pmol, 1.6 pmol, 3.2 pmol, 6.4 pmol and 12.8 pmol. • 4) Pipette 500 μL of lysis buffer 1 into all the tubes. • 5) Into the 12.8 pmol tube pipette 500 μL of stock standard (512 pmol/mL) and mix thoroughly. Transfer 500 μL from 12.8 pmol tube to the 6.4 pmol tube and mix thoroughly. Repeat this doubling dilution successively with the remaining tubes.
6) 50 μL aliquots in duplicate from each serial dilution and the stock standard will give rise to 8 standard levels of cAMP ranging from 0.2-25.6 pmol standard
Add 50 μL of […] IBMX into 100 mL PBS to make a final concentration of 100 μM and sonicate at 30° C. for 20 minutes.
Dissolve 1 mg PGD2 (FW, 352.5) in 284 μL DMSO to make 10 mM stock solution and store at […]. Before each assay, it is freshly prepared. Add 3 μL of 10 mM stock solution to 20 mL DMSO, mix it thoroughly, and transfer 10 mL to 40 mL PBS.
Compound dilution is carried out in Biomex 2000 (Beckman) using Method 1_cAMP DP 11 points.
5 μL of each compound from the 10 mM stock compound plates is transferred to the wells of a 96-well plate respectively as below.
Fill the plate with 45 μL of DMSO except column 7 is filled with 28 μL DMSO. Pipette column 1 thoroughly, and transfer 12 μL into column 7 parallel. Perform 1:10 serial dilution from column 1 to column 6 and from column 7 to column 11 by transfer 5 μL to 45 μL DMSO to make following concentrations:
Fill a new 96-well plate with 247.5 μL of compound dilution buffer. Transfer 2.5 μL of serially diluted compounds from above plate to the new plate (1:100 dilution) as following:
Cell Growth • 1. LS174 T are always grown in MEM (ATCC Cat# 30-2003), 10% FBS (ATCC Cat# 30-2020) and additional 2 mM L-glutamine, at 37° C. and 5% CO2. • 2. Warm 0.05% Trypsin and Versine (Invitrogen Cat# 25300-054) at 37° C. water bath. • 3. […]

One may read the IC50 as the concentration that gives 50% inhibition. Low readings indicate inhibition by little substance, high ones a need for much substance. Compound `O=C(O)c1ccc2cc(-c3ccc(Cl)c(S(=O)(=O)NC4CCCCC4)c3)[nH]c2c1` [Example 16, 2-(4-Chloro-3-cyclohexylsulfamoyl-phenyl)-1H-indole-6-carboxylic acid] returned a concentration for half-maximal inhibition (IC50) of 0.51 µM. `O=C(O)Cc1c(-c2cccc(S(=O)(=O)NC3CCCCC3)c2)[nH]c2ccccc12` [Example 10(f), [2-(3-Cyclohexylsulfamoyl-phenyl)-1H-indol-3-yl]-acetic acid] returned an IC50 of 0.106 µM. The result for `Cn1c(-c2ccc(Cl)c(S(=O)(=O)NC3CCCCC3)c2)c(CCO)c2ccccc21` [Example 9, 2-Chloro-N-cyclohexyl-5-[3-(2-hydroxy-ethyl)-1-methyl-1H-indol-2-yl]-benzenesulfonamide] reads 8.71 µM; that for `O=C(O)Cc1c(-c2ccc(Cl)c(S(=O)(=O)NCC34CC5CC(CC(C5)C3)C4)c2)[nH]c2ccccc12` [Example 1(m), (2-[4-Chloro-3-[(tricyclo[3.3.1.13.7]decan-1-ylmethyl)-sulfamoyl]-phenyl]-1H-indol-3-yl)-acetic acid], 0.0086 µM. The result for `O=C(O)Cc1c(-c2cc(C(F)(F)F)cc(S(=O)(=O)NC3CCCCC3)c2)[nH]c2ccccc12` [Example 12, [2-(3-cyclohexylsulfamoyl-5-trifluoromethyl-phenyl)-1H-indol-3-yl]-acetic acid] reads 0.232 µM.

The compound `O=C(O)Cc1c(-c2ccc(Cl)c(S(=O)(=O)NCCC3CCCCC3)c2)[nH]c2ccccc12` [Example 1(h), {2-[4-Chloro-3-(2-cyclohexyl-ethylsulfamoyl)-phenyl]-1H-indol-3-yl}-acetic acid] displayed an IC50 of 0.035 µM.

`CC(C)(C)c1ccc2[nH]c(-c3ccc(Cl)c(S(=O)(=O)NC4CCCCC4)c3)c(CC(=O)O)c2c1` [Example 1(s), [5-tert-Butyl-2-(4-chloro-3-cyclohexylsulfamoyl-phenyl)-1H-indol-3-yl]-acetic acid] showed a half-inhibitory concentration (IC50) of 0.004 µM. In the case of `O=C(O)Cc1c(-c2ccc(Cl)c(S(=O)(=O)NCc3ccc(C(F)(F)F)cc3)c2)[nH]c2ccccc12` [Example 1(y), {2-[4-Chloro-3-(4-trifluoromethyl-benzylsulfamoyl)-phenyl]-1H-indol-3-yl}-acetic acid], half-maximal inhibition (IC50) required 0.019 µM.

The values are drawn from patent publication US20070265278A1, “2-PHENYL-INDOLES AS PROSTAGLANDIN D2 RECEPTOR ANTAGONISTS” (Aventis Pharmaceuticals Inc., priority 2005, published 2007).
